Reference: patent US8916551B2, “Heterocyclic compound and use thereof” (Takeda Pharmaceutical Company Limited, priority 2010, dated 2014)

Assays:
[1] = test system: methamphetamine (MAP)-induced hyperlocomotion in mice; experiment: Inhibition of methamphetamine (MAP)-induced hyperlocomotion; type: in vivo; details: male ICR mice; compound 10 mg/kg p.o. 60 min before MAP 2 mg/kg s.c.; counts 120 min after MAP
Experimental: Male ICR mice were supplied by CLEA Japan, Inc (Japan). After arrival to the vivarium, animals were allowed a minimum of 1 week for acclimation. They were housed under a 12:12-h light/dark cycle in a temperature- and humidity-controlled laboratory and allowed food and water ad libitum.
A test compound was suspended in 0.5% methylcellulose in distilled water and orally administered (p.o.). Methamphetamine (Dainippon Sumitomo Pharma Co., Ltd.) was dissolved in saline and subcutaneously administered (s.c.). All drugs were dosed in a volume of 10 mL/kg body weight for mice.
The widely used animal models of psychosis have been the measurement of the extent of hyperlocomotion induced by psychostimulants (e.g., amphetamine, cocaine, methamphetamine, MK-801 and phencyclidine) in rodents (Psychopharmacology 1999, vol. 145: 237-250). 4 compounds (A, B, C, D) were tested for its ability to antagonize MAP-induced hyperlocomotion in mice. Male ICR mice were habituated in the locomotor chambers with infrared sensors (BrainScienceldea Co., Ltd. Japan) to the experiment. After the habituation, animals were treated with either vehicle or the compounds (10 mg/kg, p.o.), and MAP (2 mg/kg, s.c.) was administrated 60 min later. Locomotion activities were measured, and accumulated counts (120 min after administration of MAP) were calculated in each treatment group. All data were represented as means plus the standard errors of the means (n=3-9) and analyzed using Student's t-test with significance set at **P<0.01 and ***P<0.001 or Welch's t-test with significance set at ^$P<0.05, ^$$P<0.01 and ^$$$P<0.001.

[2] = target: T1, AMPA receptor (human GluR1 flip/stargazin expressed in CHO-K1 cells) (Homo sapiens, UniProt P42261); experiment: AMPA receptor function enhancing activity using calcium influx as index; type: cell-based; details: test compound 30 μM with 3 mM glutamic acid, change in fluorescence level in 3 min, 100% = 3 mM glutamic acid + 300 μM cyclothiazide, 0% = 3 mM glutamic acid only
T1 construct: expressed in transfected cells; host or cells: CHO-K1
Outline: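 CHO-K1 clone stably co-expressing human GluR1 flip and stargazin, loaded with Calcium 4 dye plus probenecid. Compound at 30 μM was added with glutamate (3 mM final) and fluorescence change followed over 3 min. Activity is expressed as % of the 3 mM glutamate plus 300 μM cyclothiazide response, with glutamate alone as 0%.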

T1 sequence (P42261 19-906 isoform P42261-2 limits assumed): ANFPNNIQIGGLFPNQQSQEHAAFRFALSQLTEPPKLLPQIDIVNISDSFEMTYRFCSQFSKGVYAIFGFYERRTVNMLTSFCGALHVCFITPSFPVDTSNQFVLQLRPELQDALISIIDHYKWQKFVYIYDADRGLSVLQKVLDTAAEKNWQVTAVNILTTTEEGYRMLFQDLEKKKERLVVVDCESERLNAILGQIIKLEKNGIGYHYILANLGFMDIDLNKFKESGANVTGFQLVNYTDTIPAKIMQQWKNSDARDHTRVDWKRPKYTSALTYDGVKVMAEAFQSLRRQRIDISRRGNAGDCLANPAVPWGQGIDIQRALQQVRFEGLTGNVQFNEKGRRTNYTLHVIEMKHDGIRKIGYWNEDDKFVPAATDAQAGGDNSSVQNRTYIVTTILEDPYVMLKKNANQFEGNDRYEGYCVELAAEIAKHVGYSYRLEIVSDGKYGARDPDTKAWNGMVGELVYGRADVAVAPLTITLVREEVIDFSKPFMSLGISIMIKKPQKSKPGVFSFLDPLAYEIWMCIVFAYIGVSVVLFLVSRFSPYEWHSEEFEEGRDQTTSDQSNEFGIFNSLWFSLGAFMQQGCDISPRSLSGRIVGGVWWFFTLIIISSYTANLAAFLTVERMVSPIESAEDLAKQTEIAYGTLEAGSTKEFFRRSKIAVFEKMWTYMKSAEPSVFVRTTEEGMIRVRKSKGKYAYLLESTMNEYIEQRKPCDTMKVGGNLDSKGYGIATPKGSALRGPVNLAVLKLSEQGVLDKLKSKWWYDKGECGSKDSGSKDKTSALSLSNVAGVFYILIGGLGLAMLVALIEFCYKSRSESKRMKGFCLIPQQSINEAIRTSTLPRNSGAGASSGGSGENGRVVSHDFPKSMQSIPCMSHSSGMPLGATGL
T1 sequence (Q9Y698 whole entry partner): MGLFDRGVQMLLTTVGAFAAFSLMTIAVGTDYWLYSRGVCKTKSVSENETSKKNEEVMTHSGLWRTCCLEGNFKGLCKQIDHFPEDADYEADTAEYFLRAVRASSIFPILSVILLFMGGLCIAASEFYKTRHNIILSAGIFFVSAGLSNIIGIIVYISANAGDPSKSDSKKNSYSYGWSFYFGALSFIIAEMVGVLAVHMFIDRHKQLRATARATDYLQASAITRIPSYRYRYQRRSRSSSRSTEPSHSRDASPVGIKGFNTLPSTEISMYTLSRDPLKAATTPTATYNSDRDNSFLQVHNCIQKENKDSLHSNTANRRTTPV

Structure (SMILES) | inhibition of MAP-induced hyperlocomotion (accumulated locomotion counts 0-120 min) [1] | activity (%) [2] [%] | melting point [°C]
O=S1(=O)CCN2C=CC=C(c3ccc(Oc4ccccc4)cc3)C2=N1 [A, 9-(4-phenoxyphenyl)-3,4-dihydropyrido[2,1-c][1,2,4]thiadiazine 2,2-dioxide] | significant inhibition |  | 
Cc1ccc(Oc2ccc(C3=CC=CN4CCS(=O)(=O)N=C34)cc2)cc1 [B, 9-[4-(4-methylphenoxy)phenyl]-3,4-dihydropyrido[2,1-c][1,2,4]thiadiazine 2,2-dioxide] | significant inhibition |  | 
CC1=CN2CCS(=O)(=O)N=C2C(c2ccc(OC3CCCCC3)cc2)=N1 [C, 9-[4-(cyclohexyloxy)phenyl]-7-methyl-3,4-dihydropyrazino[2,1-c][1,2,4]thiadiazine 2,2-dioxide] | significant inhibition |  | 
O=S1(=O)CCN2C=CC=C(c3ccc(OC4CCCCC4)cc3)C2=N1 [D, 9-[4-(cyclohexyloxy)phenyl]-3,4-dihydropyrido[2,1-c][1,2,4]thiadiazine 2,2-dioxide] | significant inhibition |  | 
CC(C)Oc1ccc(C2=CC=CN3CCS(=O)(=O)N=C23)cc1Cl [Example 208, 9-[3-chloro-4-(1-methylethoxy)phenyl]-3,4-dihydropyrido[2,1-c][1,2,4]thiadiazine 2,2-dioxide] |  | 79 | 239 to 240
Cc1ccc(Oc2ccc([C@@H]3CCCN4CCS(=O)(=O)N=C34)cc2)cc1C [Example 216, (9S)-9-[4-(3,4-dimethylphenoxy)phenyl]-3,4,6,7,8,9-hexahydropyrido[2,1-c][1,2,4]thiadiazine 2,2-dioxide] |  | 71 | 170 to 171
CCc1ccc(Oc2ccc([C@@H]3CCCN4CCS(=O)(=O)N=C34)cc2)cc1 [Example 218, (9S)-9-[4-(4-ethylphenoxy)phenyl]-3,4,6,7,8,9-hexahydropyrido[2,1-c][1,2,4]thiadiazine 2,2-dioxide] |  | 74 | 156 to 157
COc1cccc(Oc2ccc([C@@H]3CCCN4CCS(=O)(=O)N=C34)cc2)c1 [Example 219, (9S)-9-[4-(3-methoxyphenoxy)phenyl]-3,4,6,7,8,9-hexahydropyrido[2,1-c][1,2,4]thiadiazine 2,2-dioxide] |  | 83 | 139 to 140
O=S1(=O)CCN2CCC[C@@H](c3ccc(Oc4cc(F)c(F)c(F)c4)cc3)C2=N1 [Example 227, (9S)-9-[4-(3,4,5-trifluorophenoxy)phenyl]-3,4,6,7,8,9-hexahydropyrido[2,1-c][1,2,4]thiadiazine 2,2-dioxide] |  | 68 | 180 to 181
O=S1(=O)CCN2CCCC(c3ccc(Oc4ccc(C(F)(F)F)cc4)cc3)C2=N1 (stereo not drawn) [Example 232, 9-{4-[4-(trifluoromethyl)phenoxy]phenyl}-3,4,6,7,8,9-hexahydropyrido[2,1-c][1,2,4]thiadiazine 2,2-dioxide] |  | 60 | 174 to 176
Cc1cc(F)cc(Oc2ccc([C@@H]3CCCN4CCS(=O)(=O)N=C34)cc2)c1 [Example 236, (9S)-9-[4-(3-fluoro-5-methylphenoxy)phenyl]-3,4,6,7,8,9-hexahydropyrido[2,1-c][1,2,4]thiadiazine 2,2-dioxide] |  | 74 | 158 to 159
